The values below come from patent publication USRE42890E1, “Furazanobenzimidazoles” (Basilea Pharmaceutica AG, priority 2003, dated 2011).

Like-named read-outs stand apart in the source and are kept apart here. Some results are limits rather than exact numbers.

One experiment concerns Jily. Kind of experiment: MTS proliferation assay, Jily. It counts as cell-based. The note with it: 72 h incubation, read-out: MTS proliferation assay IC 50 Jily. The gist of the method: (§1)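 Read-out: MTS absorbance at 492 nm after 3 h reagent incubation. Before that, cells grew 72 h at 37° C/7.5% CO2 with test compounds at final concentrations of 10 μM, 3 μM, 1 μM and 0.3 μM, added 24 h post-seeding.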

For another experiment, the system named is MRC5. Nature of the experiment: MTS proliferation assay, MRC5. It counts as cell-based. The note with it: MRC5, 72 h incubation, read-out: MTS proliferation assay IC 50 MRC5. The gist of the method: as §1
Experiment [1] has as its system adherent cells or suspension cells. Kind of experiment: Hoechst 33342 nuclear staining (fraction of apoptotic nuclei). Set-up: key: 0 relating to no activity; 1 relating to weak activity comprising less than 70% of the cells; score 2 relating to strong activity comprising more than 70% of the cells. The experiment is classed as cell-based.
A further experiment deals with HeLa. Kind of experiment: MTS proliferation assay, HeLa. The experiment is classed as cell-based, human. The following applies: 72 h incubation, read-out: MTS proliferation assay IC 50 HeLa. The essentials:
(§2)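 Absorbance at 492 nm after 3 h with MTS reagent gave the proliferation read-out. Before that, cells in RPMI-1640 complete medium (5% or 10% FCS) were treated 72 h with compound at four final concentrations, 0.3 to 10 μM.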

The test system of another experiment is HT1080. Nature of the experiment: MTS proliferation assay, HT1080. The following applies: HT1080, 72 h incubation, read-out: MTS proliferation assay IC 50 HT1080. It counts as cell-based, human. The gist of the method:
as §2
On the technique in general: Formazan colour is commonly taken as a measure of viable cells.

Another experiment has as its system Jurkat. Kind of experiment: MTS proliferation assay, Jurkat. The experiment is classed as cell-based, human. The following applies: 72 h incubation, read-out: MTS proliferation assay IC 50 Jurkat. The essentials:
as §2

Regarding `Nc1nonc1-c1nc2ccccc2n1CC(=O)c1ccc(Cl)nc1` [Example 70], the IC50 with Jily, with MRC5, in the experiment with HeLa, with HT1080 and in the experiment with Jurkat was < 0.01 µM throughout. Further, the “Hoechst 33342 nuclear staining score” value in experiment [1] (H460, conc 0.01 μm) is reported as 1 (1 relating to weak activity comprising less than 70% of the cells); in experiment [1] (H460, conc 0.1 μm), 2 (score 2 relating to strong activity comprising more than 70% of the cells); in experiment [1] (H460, conc 1 μm), 2 (score 2 relating to strong activity comprising more than 70% of the cells); in experiment [1] (HeLa, conc 0.01 μm) it was 0; in experiment [1] (HeLa, conc 0.1 μm), 2 (score 2 relating to strong activity comprising more than 70% of the cells); in experiment [1] (HeLa, conc 1 μm), 2 (score 2 relating to strong activity comprising more than 70% of the cells). The “Hoechst 33342 nuclear staining score” value in experiment [1] (Jily, conc 0.01 μm) is listed as 2 (score 2 relating to strong activity comprising more than 70% of the cells); in experiment [1] (Jily, conc 0.1 μm), 2 (score 2 relating to strong activity comprising more than 70% of the cells); in experiment [1] (Jily, conc 1 μm), 2 (score 2 relating to strong activity comprising more than 70% of the cells); in experiment [1] (Jurkat, conc 0.01 μm), 2 (score 2 relating to strong activity comprising more than 70% of the cells); in experiment [1] (Jurkat, conc 0.1 μm), 2 (score 2 relating to strong activity comprising more than 70% of the cells); in experiment [1] (Jurkat, conc 1 μm) it was 2 (score 2 relating to strong activity comprising more than 70% of the cells). The “Hoechst 33342 nuclear staining score” value in experiment [1] (MRC5, conc 0.01 μm) is recorded as 1 (1 relating to weak activity comprising less than 70% of the cells); in experiment [1] (MRC5, conc 0.1 μm), 2 (score 2 relating to strong activity comprising more than 70% of the cells); in experiment [1] (MRC5, conc 1 μm), 2 (score 2 relating to strong activity comprising more than 70% of the cells); in experiment [1] (PBLs, conc 0.01 μm), 0; in experiment [1] (PBLs, conc 0.1 μm) it was 0; in experiment [1] (PBLs, conc 1 μm) it was 0.

For the compound `COc1cc(C(=O)Cn2c(-c3nonc3N)nc3ccccc32)ccc1OCc1ccccc1` [Example 73], the IC50 with Jily, in the experiment on MRC5, in the experiment with HeLa, in the experiment with HT1080 and with Jurkat was 0.1 to 1 µM throughout. For the same compound, the “Hoechst 33342 nuclear staining score” value in experiment [1] (H460, conc 0.01 μm) is 0; in experiment [1] (H460, conc 0.1 μm), 0; in experiment [1] (H460, conc 1 μm), 2 (score 2 relating to strong activity comprising more than 70% of the cells); in experiment [1] (HeLa, conc 0.01 μm), 0; in experiment [1] (HeLa, conc 0.1 μm), 0; in experiment [1] (HeLa, conc 1 μm) it was 1 (1 relating to weak activity comprising less than 70% of the cells). Besides, the “Hoechst 33342 nuclear staining score” value in experiment [1] (Jily, conc 0.01 μm) is listed as 0; in experiment [1] (Jily, conc 0.1 μm), 0; in experiment [1] (Jily, conc 1 μm) it was 1 (1 relating to weak activity comprising less than 70% of the cells); in experiment [1] (Jurkat, conc 0.01 μm) it was 0; in experiment [1] (Jurkat, conc 0.1 μm), 0; in experiment [1] (Jurkat, conc 1 μm), 2 (score 2 relating to strong activity comprising more than 70% of the cells). The “Hoechst 33342 nuclear staining score” value in experiment [1] (MRC5, conc 0.01 μm) was 0; in experiment [1] (MRC5, conc 0.1 μm) it was 0; in experiment [1] (MRC5, conc 1 μm), 1 (1 relating to weak activity comprising less than 70% of the cells); in experiment [1] (PBLs, conc 0.01 μm) it was 0; in experiment [1] (PBLs, conc 0.1 μm), 0; in experiment [1] (PBLs, conc 1 μm), 0.

Turning to `N#CCCNc1nonc1-c1nc2ccccc2n1COc1ccccc1` [Example 95], the IC50 in the experiment with Jily, in the experiment on MRC5, with HeLa, in the experiment on HT1080 and with Jurkat was 0.1 to 1 µM each time. Besides, the “Hoechst 33342 nuclear staining score” value is given as 0 in experiment [1] (HeLa, conc 0.01 μm); 0 in experiment [1] (HeLa, conc 0.1 μm); 1 (1 relating to weak activity comprising less than 70% of the cells) in experiment [1] (HeLa, conc 1 μm); 0 in experiment [1] (Jily, conc 0.01 μm); 0 in experiment [1] (Jily, conc 0.1 μm); 1 (1 relating to weak activity comprising less than 70% of the cells) in experiment [1] (Jily, conc 1 μm). Also, the “Hoechst 33342 nuclear staining score” value in experiment [1] (Jurkat, conc 0.01 μm) is reported as 0; in experiment [1] (Jurkat, conc 0.1 μm), 0; in experiment [1] (Jurkat, conc 1 μm), 2 (score 2 relating to strong activity comprising more than 70% of the cells); in experiment [1] (MRC5, conc 0.01 μm), 0; in experiment [1] (MRC5, conc 0.1 μm), 0; in experiment [1] (MRC5, conc 1 μm), 0. For the same compound, the “Hoechst 33342 nuclear staining score” value in experiment [1] (PBLs, conc 0.01 μm) was found to be 0; in experiment [1] (PBLs, conc 0.1 μm) it was 0; in experiment [1] (PBLs, conc 1 μm), 0.

As for `COCCOc1ccc(C(=O)Cn2c(-c3nonc3N)nc3ccccc32)cc1` [Example 77], the IC50 with Jily, with MRC5, in the experiment on HeLa, in the experiment on HT1080 and in the experiment with Jurkat was 0.1 to 1 µM each time. The “Hoechst 33342 nuclear staining score” value is given as 0 in experiment [1] (H460, conc 0.01 μm); 0 in experiment [1] (H460, conc 0.1 μm); 2 (score 2 relating to strong activity comprising more than 70% of the cells) in experiment [1] (H460, conc 1 μm); 0 in experiment [1] (HeLa, conc 0.01 μm); 0 in experiment [1] (HeLa, conc 0.1 μm); 2 (score 2 relating to strong activity comprising more than 70% of the cells) in experiment [1] (HeLa, conc 1 μm). Moreover, the “Hoechst 33342 nuclear staining score” value in experiment [1] (Jily, conc 0.01 μm) was 0; in experiment [1] (Jily, conc 0.1 μm), 0; in experiment [1] (Jily, conc 1 μm), 2 (score 2 relating to strong activity comprising more than 70% of the cells); in experiment [1] (Jurkat, conc 0.01 μm) it was 0; in experiment [1] (Jurkat, conc 0.1 μm), 0; in experiment [1] (Jurkat, conc 1 μm), 2 (score 2 relating to strong activity comprising more than 70% of the cells). The “Hoechst 33342 nuclear staining score” value in experiment [1] (MRC5, conc 0.01 μm) is 0; in experiment [1] (MRC5, conc 0.1 μm), 0; in experiment [1] (MRC5, conc 1 μm) it was 1 (1 relating to weak activity comprising less than 70% of the cells); in experiment [1] (PBLs, conc 0.01 μm) it was 0; in experiment [1] (PBLs, conc 0.1 μm), 0; in experiment [1] (PBLs, conc 1 μm), 0.

`CN(C)c1nonc1-c1nc2ccccc2n1CC(=O)c1ccc(Cl)cc1` [Example 4, Dimethyl-{4-[1-(4-chlorophenacyl)-1H-benzimidazol-2-yl]-furazan-3-yl}-amine]: the IC50 in the experiment on Jily lay in the range of 0.1 to 1 µM; in the experiment on MRC5 (Homo sapiens) it was 0.1 to 1 µM; with HeLa (Homo sapiens), 0.1 to 1 µM; in the experiment with HT1080 (Homo sapiens, HT-1080), 0.1 to 1 µM; in the experiment with Jurkat (Homo sapiens), 0.01 to 0.1 µM. Moreover, the “Hoechst 33342 nuclear staining score” value in experiment [1] (H460, conc 0.01 μm) is 0; in experiment [1] (H460, conc 0.1 μm), 0; in experiment [1] (H460, conc 1 μm), 1 (1 relating to weak activity comprising less than 70% of the cells); in experiment [1] (HeLa, conc 0.01 μm), 0; in experiment [1] (HeLa, conc 0.1 μm), 0; in experiment [1] (HeLa, conc 1 μm) it was 2 (score 2 relating to strong activity comprising more than 70% of the cells). Besides, the “Hoechst 33342 nuclear staining score” value in experiment [1] (Jily, conc 0.01 μm) was 0; in experiment [1] (Jily, conc 0.1 μm), 0; in experiment [1] (Jily, conc 1 μm), 2 (score 2 relating to strong activity comprising more than 70% of the cells); in experiment [1] (Jurkat, conc 0.01 μm), 0; in experiment [1] (Jurkat, conc 0.1 μm), 0; in experiment [1] (Jurkat, conc 1 μm), 2 (score 2 relating to strong activity comprising more than 70% of the cells). Also, the “Hoechst 33342 nuclear staining score” value in experiment [1] (MRC5, conc 0.01 μm) is recorded as 0; in experiment [1] (MRC5, conc 0.1 μm), 0; in experiment [1] (MRC5, conc 1 μm), 2 (score 2 relating to strong activity comprising more than 70% of the cells); in experiment [1] (PBLs, conc 0.01 μm), 0; in experiment [1] (PBLs, conc 0.1 μm), 0; in experiment [1] (PBLs, conc 1 μm) it was 0.
